# Data from patent US20240294545A1 (CSPC Zhongqi Pharmaceutical Technology (Shijiazhuang) Co., …, priority 2020, published 2024).
# Marks after values point to notes of the source that are not given here.
# Assays:
# [1] = tested on: subcutaneous xenograft tumor of human colon cancer cell line HT-29; test: HT-29 subcutaneous xenograft, combined with irinotecan liposome injection; assay type: in vivo, NU/NU mice; details: compound 25 mg/kg intragastric + irinotecan liposome 10 mg/kg ip
# Method: 7 Efficacy Test of the Compounds of the Present Disclosure Combined with Irinotecan Liposome Injection on Inhibiting the Growth of Subcutaneous Xenograft Tumor of Human Colon Cancer Cell Line HT-29
# 7.1 Experimental Animals: NU/NU Mice, SPF, Female, 20 to 30 g.
# Irinotecan liposome injection (HE072), 43 mg: 10 mL, milky white liquid, batch No. B37191202, provided by Preparation Research Institute 2 from CSPC Zhongqi Pharmaceutical Technology (Shijiazhuang) Co., Ltd., diluted to an appropriate concentration with 5% glucose injection while testing.
# HT-29 cell, provided by Nanjing Kebai Biotechnology Co., Ltd.; 5A culture medium:fetal bovine serum=90%:10%, 37° C., 5% CO2.
# NU/NU nude mice were subcutaneously inoculated with HT-29 human colon cancer cells. When the mean tumor volume reached about 170 mm^3 (9 days after inoculation), the animals were evenly divided into groups according to the tumor volume (d0), with 6 mice in each group. 10 mg/kg of HE072 was administered intraperitoneally once a week for 1 time. Vehicle control, 25 mg/kg of A-6, 25 mg/kg of A-46, and 25 mg/kg of AZD1390 were administered intragastrically once a day, from Monday to Thursday every week except Friday to Sunday, for 1 week (4 times). The tumor volume was measured twice a week, the body weight of mouse was weighed every day, and the data were recorded. The tumor volume (TV) was calculated according to the formula: TV=½×a×b2, wherein a and b represent the long and short diameters of tumor, respectively. Tumor growth inhibitory rate TGI (%)=[1−(Ti−T0)/(Vi−V0)]×100, wherein Ti represents the mean tumor volume of a given treatment group on a certain day; TO represents the mean tumor volume of this treatment group at the beginning of administration; Vi represents the mean tumor volume of the vehicle control group on a certain day (the same day as that in Ti); V0 represents the mean tumor volume of the vehicle control group at the beginning of administration. At the end of the test (d17), the animals were sacrificed, the tumors were stripped and weighed, and the tumor weight inhibitory rates were calculated.
# ATM = ATM (Homo sapiens (Human), UniProt Q13315); test: Caliper mobility shift assay for ATM; assay type: biochemical; details: read-out: IC50 of inhibitory activity on ATM kinase
# Chain of ATM (Q13315 whole entry): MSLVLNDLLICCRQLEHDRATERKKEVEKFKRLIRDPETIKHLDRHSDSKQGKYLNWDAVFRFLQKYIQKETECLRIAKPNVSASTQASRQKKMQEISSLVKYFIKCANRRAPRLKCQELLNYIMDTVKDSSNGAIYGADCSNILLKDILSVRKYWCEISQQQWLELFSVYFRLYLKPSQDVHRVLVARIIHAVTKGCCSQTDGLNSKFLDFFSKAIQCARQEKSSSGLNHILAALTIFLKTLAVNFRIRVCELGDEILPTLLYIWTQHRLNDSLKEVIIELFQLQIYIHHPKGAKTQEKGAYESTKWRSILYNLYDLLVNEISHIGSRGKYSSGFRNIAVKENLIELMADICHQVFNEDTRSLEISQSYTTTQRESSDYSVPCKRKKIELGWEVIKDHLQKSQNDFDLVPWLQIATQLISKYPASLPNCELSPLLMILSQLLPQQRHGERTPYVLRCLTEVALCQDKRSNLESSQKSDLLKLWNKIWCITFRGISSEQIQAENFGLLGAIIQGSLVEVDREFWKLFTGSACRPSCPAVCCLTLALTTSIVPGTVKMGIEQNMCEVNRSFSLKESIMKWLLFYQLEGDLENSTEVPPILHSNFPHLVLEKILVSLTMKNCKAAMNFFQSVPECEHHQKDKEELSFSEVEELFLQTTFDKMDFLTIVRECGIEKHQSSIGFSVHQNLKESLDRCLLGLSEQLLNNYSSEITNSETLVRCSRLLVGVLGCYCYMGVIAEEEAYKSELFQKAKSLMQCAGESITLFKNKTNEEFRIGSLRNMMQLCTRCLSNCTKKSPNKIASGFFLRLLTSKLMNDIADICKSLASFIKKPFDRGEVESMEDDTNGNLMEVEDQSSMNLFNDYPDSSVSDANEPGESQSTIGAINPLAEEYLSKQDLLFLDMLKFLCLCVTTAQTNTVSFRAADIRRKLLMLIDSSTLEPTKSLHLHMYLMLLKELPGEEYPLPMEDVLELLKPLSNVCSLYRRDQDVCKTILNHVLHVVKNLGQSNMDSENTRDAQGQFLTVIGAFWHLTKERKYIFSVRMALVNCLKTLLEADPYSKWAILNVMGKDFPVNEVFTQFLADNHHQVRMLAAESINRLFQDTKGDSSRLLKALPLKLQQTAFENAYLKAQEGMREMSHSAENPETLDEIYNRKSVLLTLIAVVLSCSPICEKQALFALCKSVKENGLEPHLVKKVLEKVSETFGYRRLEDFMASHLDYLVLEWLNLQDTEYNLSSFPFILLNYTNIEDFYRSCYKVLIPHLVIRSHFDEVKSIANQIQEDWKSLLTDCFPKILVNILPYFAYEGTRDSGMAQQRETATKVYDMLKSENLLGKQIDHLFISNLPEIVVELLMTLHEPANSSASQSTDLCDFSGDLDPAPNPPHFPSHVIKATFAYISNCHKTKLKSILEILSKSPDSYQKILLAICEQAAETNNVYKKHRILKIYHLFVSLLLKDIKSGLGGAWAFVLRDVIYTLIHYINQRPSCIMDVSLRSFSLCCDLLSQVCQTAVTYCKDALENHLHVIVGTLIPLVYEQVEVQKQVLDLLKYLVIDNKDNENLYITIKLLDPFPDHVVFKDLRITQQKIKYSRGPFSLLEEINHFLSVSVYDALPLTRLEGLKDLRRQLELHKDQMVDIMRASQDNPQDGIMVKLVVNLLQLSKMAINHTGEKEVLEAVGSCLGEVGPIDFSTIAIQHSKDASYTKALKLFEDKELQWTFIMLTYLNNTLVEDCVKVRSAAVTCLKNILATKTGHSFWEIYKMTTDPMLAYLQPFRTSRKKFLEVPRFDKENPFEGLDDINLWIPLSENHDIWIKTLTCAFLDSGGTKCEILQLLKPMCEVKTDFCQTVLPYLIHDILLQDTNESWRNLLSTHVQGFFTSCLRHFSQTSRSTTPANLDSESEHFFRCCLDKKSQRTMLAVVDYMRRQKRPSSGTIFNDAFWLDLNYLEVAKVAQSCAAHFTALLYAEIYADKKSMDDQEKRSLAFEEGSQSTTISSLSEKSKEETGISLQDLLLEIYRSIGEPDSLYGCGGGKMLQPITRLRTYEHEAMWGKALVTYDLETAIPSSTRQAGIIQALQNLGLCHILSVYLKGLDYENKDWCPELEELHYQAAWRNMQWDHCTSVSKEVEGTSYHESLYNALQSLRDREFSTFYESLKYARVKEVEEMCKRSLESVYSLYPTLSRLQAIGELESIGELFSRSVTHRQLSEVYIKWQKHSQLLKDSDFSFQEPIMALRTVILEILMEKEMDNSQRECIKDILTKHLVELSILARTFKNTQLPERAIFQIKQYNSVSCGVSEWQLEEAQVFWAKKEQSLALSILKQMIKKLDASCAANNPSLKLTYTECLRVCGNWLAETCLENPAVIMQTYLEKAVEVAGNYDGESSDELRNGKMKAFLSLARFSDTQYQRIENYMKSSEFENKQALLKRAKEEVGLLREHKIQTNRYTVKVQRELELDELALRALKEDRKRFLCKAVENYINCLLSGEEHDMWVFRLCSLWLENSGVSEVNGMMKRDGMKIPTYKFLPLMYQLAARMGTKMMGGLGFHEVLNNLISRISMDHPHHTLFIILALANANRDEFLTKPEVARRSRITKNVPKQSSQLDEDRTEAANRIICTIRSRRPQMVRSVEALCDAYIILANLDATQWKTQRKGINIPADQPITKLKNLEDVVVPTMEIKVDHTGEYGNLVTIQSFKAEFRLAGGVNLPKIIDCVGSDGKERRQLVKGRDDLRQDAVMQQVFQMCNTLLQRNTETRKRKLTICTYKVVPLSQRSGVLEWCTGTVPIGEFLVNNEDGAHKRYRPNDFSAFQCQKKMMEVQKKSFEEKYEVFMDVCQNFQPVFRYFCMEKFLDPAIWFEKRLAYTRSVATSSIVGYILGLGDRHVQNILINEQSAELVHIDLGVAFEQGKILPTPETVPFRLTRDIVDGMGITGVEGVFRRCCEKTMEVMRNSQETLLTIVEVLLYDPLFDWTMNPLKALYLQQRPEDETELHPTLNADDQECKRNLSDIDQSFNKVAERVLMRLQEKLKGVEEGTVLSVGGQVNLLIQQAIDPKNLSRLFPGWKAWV
# Method: 1.2 Determination of the Inhibitory Activities of Compounds on ATM: Caliper Mobility Shift Assay for ATM
# To a 96-well plate, 98 μL of DMSO and 2 μL of the 10 mM stock solution were added and mixed evenly so that the concentration of the solution was 200 μM.
# Based on the inhibitory rates of the compound at different concentrations, IC50 was calculated according to the formula: Y=Bottom+(Top−Bottom)/(1+(IC50/X)^HillSlope).
IC50 (ATM) [nM],SMILES,D 16 TGI ([1]; day 16) [%],D 16 TV (MEAN ± SD) ([1]; day 16),Tumor weight ([1]; end of test) [g],Tumor weight inhibitory rate ([1]; end of test) [%]
0.2,"CC(C)n1c(=O)n(C)c2cnc3cc(F)c(-c4ccc(OCCCN5CCCCC5)nc4)cc3c21 [AZD1390, reference compound]",89.6,244.2 ± 192.8***^### mm^3,0.18 ± 0.18,74.7
0.65,"Cn1c(=O)n2c3c4c(c(-c5ccc(OCCCN6CCCCC6)nc5)c(F)cc4ncc31)NCC2(C)C [Example A-193, 6-fluoro-2,10,10-trimethyl-7-(6-(3-(piperidin-1-yl)propoxy)pyridin-3-yl)-2,8,9,10-tetrahydro-1H-2,4,8,10a-tetraazanaphtho[2,1,8-cde]azulen-1(2H)-one]",,,,
